In PubChem BioAssay AID743428 (The Scripps Research Institute Molecular Screening Center, 2014):
Calls of active or inactive are those of the source. The rule behind the calls is not given here.

Target: Sphingosine 1-phosphate receptor 2 (Homo sapiens) (UniProt O95136)
Experiment: antagonism at human S1PR2 – cell-based, FRET, dose response, counter-screen for S1PR3 antagonist project, late-stage follow-up (AID 743428)
Details: S1P2-expressing cells, FRET reporter, antagonist counterscreen

Chain of Sphingosine 1-phosphate receptor 2 (Homo sapiens) (O95136 whole entry, looked up): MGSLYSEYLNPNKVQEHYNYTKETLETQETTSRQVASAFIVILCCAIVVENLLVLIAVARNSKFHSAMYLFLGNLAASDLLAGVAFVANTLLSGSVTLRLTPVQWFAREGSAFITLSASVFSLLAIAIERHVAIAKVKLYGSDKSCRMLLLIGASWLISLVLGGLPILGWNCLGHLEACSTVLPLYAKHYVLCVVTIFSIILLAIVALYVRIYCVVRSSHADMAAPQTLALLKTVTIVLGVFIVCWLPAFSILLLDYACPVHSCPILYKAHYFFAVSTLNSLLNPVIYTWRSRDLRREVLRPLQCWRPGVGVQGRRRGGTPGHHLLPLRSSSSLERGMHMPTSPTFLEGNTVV

Row | Structure (SMILES) | IC50
1 | O=C(NC(c1cccc(Cl)c1)c1nc(-c2ccccc2)no1)c1cc(Cl)cc(Cl)c1 (configuration not stated) | > 50 µM (inactive)
2 | CCc1ccc(C(NC(=O)c2cccc(Cl)c2)c2nc(-c3ccccc3)no2)cc1 (configuration not stated) | > 50 µM (inactive)
3 | COc1ccc(C(=O)NC(c2ccccc2)c2nc(-c3ccccc3)no2)cc1 (configuration not stated) | > 50 µM (inactive)
4 | O=C(NC(c1ccccc1)c1nc(-c2ccccc2)no1)c1cccc(Cl)n1 (configuration not stated) | > 50 µM (inactive)
5 | O=C(c1cccc(Cl)c1)N(CCO)C(c1ccc(Cl)c(Cl)c1)c1nc(-c2ccccc2)no1 (configuration not stated) | inactive
6 | O=C(NC(c1nc(-c2ccccc2)no1)C1CCOCC1)c1ccc(Cl)c(Cl)c1 (configuration not stated) | > 50 µM (inactive)
7 | O=C(NC(c1cccc(Cl)c1)c1nc(-c2ccccc2)no1)c1cccc(Cl)c1 (configuration not stated) | > 50 µM (inactive)
8 | O=C(NC(c1ccc(Cl)cc1)c1nc(-c2cccc(Cl)c2)no1)c1cccc(Cl)c1 (configuration not stated) | > 50 µM (inactive)
9 | O=C(NC(c1ccccc1)c1nc(-c2ccccc2)no1)c1cccc(Br)c1 (configuration not stated) | > 50 µM (inactive)
10 | O=C(NC(c1ccc(Cl)cc1)c1nc(-c2ccccn2)no1)c1cccc(Cl)c1 (configuration not stated) | > 50 µM (inactive)
11 | O=C(NC(c1nc(-c2ccccc2)no1)C1CCCCC1)c1ccc(Cl)c(Cl)c1 (configuration not stated) | > 50 µM (inactive)
12 | O=C(NC(Cc1ccccc1)c1nc(-c2ccccc2)no1)c1cccc(Cl)c1 (configuration not stated) | inactive
13 | Cc1ccc(C(=O)NC(c2ccccc2)c2nc(-c3ccccc3)no2)cc1 (configuration not stated) | > 50 µM (inactive)
14 | O=C(NC(c1ccccc1)c1nc(-c2ccccc2)no1)c1cccc(Cl)c1 (configuration not stated) | > 50 µM (inactive)

Second part, the compound after the results:

Row | IC50 | Structure (SMILES)
15 | > 50 µM (inactive) | O=C(NC(c1cccc(Cl)c1)c1nc(-c2ccccc2)no1)c1ccc(Cl)c(Cl)c1 (configuration not stated)
16 | > 50 µM (inactive) | Cc1ccc(C(NC(=O)c2cccc(Cl)c2)c2nc(-c3ccccc3)no2)cc1 (configuration not stated)
17 | > 50 µM (inactive) | O=C(NC(c1ccc(Cl)c(Cl)c1)c1nc(-c2ccccc2)no1)c1ccc(Cl)c(Cl)c1 (configuration not stated)
18 | > 50 µM (inactive) | O=C(NC(c1ccc(Cl)c(Cl)c1)c1nc(-c2ccccc2)no1)c1ccccc1 (configuration not stated)
19 | > 50 µM (inactive) | O=C(NC(c1ccc(Cl)c(Cl)c1)c1nc(-c2ccccc2)no1)c1ccc(Cl)cc1 (configuration not stated)
20 | > 50 µM (inactive) | O=C(NC(c1ccc(Cl)cc1)c1nc(-c2ccccc2)no1)c1ccc(Cl)c(Br)c1 (configuration not stated)
21 | > 50 µM (inactive) | O=C(NC(c1ccc(Cl)cc1)c1nc(-c2ccccc2)no1)c1cccc(Cl)c1 (configuration not stated)
22 | > 50 µM (inactive) | O=C(NC(c1ccccc1)c1nc(-c2ccccc2)no1)c1ccc(Cl)cc1 (configuration not stated)
23 | > 50 µM (inactive) | O=C(NC(c1ccc(Cl)c(Cl)c1)c1nc(-c2ccccc2)no1)c1cccc(Cl)c1 (configuration not stated)
24 | > 50 µM (inactive) | O=C(NC(c1ccc(Br)cc1)c1nc(-c2ccccc2)no1)c1ccc(Cl)c(Cl)c1 (configuration not stated)
25 | > 50 µM (inactive) | O=C(NC(c1ccc(Cl)cc1)c1nc(-c2ccccc2)no1)c1ccc(Cl)c(Cl)c1 (configuration not stated)
26 | > 50 µM (inactive) | N#Cc1ccc(C(=O)NC(c2ccc(Cl)c(Cl)c2)c2nc(-c3ccccc3)no2)cc1 (configuration not stated)
27 | > 50 µM (inactive) | O=C(NC(c1ccc(Cl)cc1)c1nc(-c2ccccc2)no1)c1cccc(Br)c1 (configuration not stated)
